# PMC11096148 (EJNMMI Radiopharmacy and Chemistry, 2024)
# Several values for one entry are separate records, joined by “and”; a condition that tells them apart may be missing. Equal values may be shown once.
# What was measured:
# ASGR = tested on: ASGR; set-up: method as in Stokmaier et al. [2009]; details: higher than galactose; ref Stokmaier et al. [2009]; cited from earlier work
# mouse hepatic organoids = assay: Organoid uptake assay and fluorescence imaging; assay type: cell-based; details: 1 h at 37 °C
# Protocol: For blocking, the experiment was conducted in presence of 10 mM GalNAc. At the end of the incubation time, cells were put on ice for 1 min and spun down (300 rcf, 5 min, 4 °C). The supernatant was carefully removed and organoids were washed twice with 200 µL of ice-cold PBS. Internalized activity was released by treating the organoids with 200 µL of 1 M NaOH for 10 min. Lysates were transferred into scintillation vials and the activity content was measured in a γ-counter. Organoid uptake was determined as the percentage of total radioactivity added.
# For microscopic studies organoids were incubated with 333 nM BP-Fluor-647-TriGalactan for 1 h at 37 °C. Cells were pelleted, washed once with PBS and fixated by addition of 200 µL of fixation buffer (BD Cytofix/Cytoperm™, Fisher Scientific, Hampton, USA). After 1 h at room temperature, cells were washed again with PBS and incubated in 100 µL of perm/wash-buffer (Biozym, Hessisch Oldendorf, Germany) for another 30 min. For counter staining organoids were incubated over night at 4 °C with 30 µL of a mixture of 2 µM Hoechst 33,342 (Thermo Scientific), 165 nM Phalloidin CruzFluor™ 555 (Santa Cruz, Dallas, Texas, USA) and Anti-ASGR1 AF488-coupled antibody (2 µg/mL, Bio-Techne, Dublin, Ireland). The next day, organoids were centrifuged, washed three times with PBS and transferred to a CellCarrier-96 Ultra Microplate (PerkinElmer). The Operetta CLS system (revvity, Hamburg, Germany) was used to image the samples. Analysis was performed using the Harmony software 4.9.
# Mouse hepatic organoids (Stemcell Technologies, Vancouver, Canada) were cultivated in HepatiCult® organoid growth medium supplemented with 1 % Penicillin/Streptomycin + l-Glutamine (Thermofisher Scientific, Waltham, Massachussetts, USA) embedded in a Geltrex^TM (Thermofisher Scientific) LDEV-free reduced growth factor basement membrane matrix. Medium was replaced every 3-4 days and organoids were passaged every 7-10 days. For passaging, matrix domes were mechanically disrupted and the cell suspension was transferred into a 15 mL falcon tube. […]
# [1] = Stability in human blood serum; assay type: in vitro ADME; details: for Serum stability: human blood serum
# Protocol: (§1) A detailed synthetic procedure for preparation of NODAGA-TriGalactan including analytical data as well as a complete list of all reagents can be found in the supplementary information. Protocols for determination of logD, protein binding and stability studies have been described elsewhere (Hörmann et al. [2020]).
# (§2) Binding to the ASGR was quantified in an assay with freshly isolated mouse hepatocytes using the ^natGa-complex of NODAGA-TriGalactan. Hepatocytes were seeded in a 24-well plate and competitive binding against [^125I]I-asialorosomucoid (ASOR) was studied.
# Stability in PBS = assay type: physicochemical
# Protocol: as §1, §2
# plasma protein = assay: Protein binding; assay type: in vitro ADME
# Protocol: as §1, §2
# [2] = Biodistribution studies in healthy BALB/c mice; assay type: in vivo
# Protocol: For biodistribution studies 6 week old female BALB/c mice (n = 3, Charles Rivers Laboratories, Sulzfeld, Germany) were injected with 0.1 nmol (100 µL, approx. 1 MBq) of ^68Ga-labelled compound via the lateral tail vein and sacrificed by cervical dislocation 10, 30, or 60 min post injection (p.i.). The mice were dissected, blood and organs were weighed and the activity of the samples measured in a γ-counter. For blocking experiments, mice were co-injected with 27.7 µmol of D-galactose.
# [3] = Small animal dynamic PET/MR imaging, time activity curves; assay type: in vivo; details: C57BL/6J mice
# Protocol: All animal experiments were performed according to the German animal welfare act and approved by the local authorities (R5/19). Male C57BL/6J mice were purchased from Janvier Lab (Saint-Berthevin Cedex, France) at 6 weeks. Mice were kept under 1.5% isoflurane in oxygen during the measurements (n = 3). Approximately 1 MBq of the radiotracer was injected intravenously per mouse and 1 h dynamic PET was performed with an Inveon microPET system (Inveon D-PET, Siemens, Knoxville, TN, USA). Mice were then transferred to a 7 Tesla BioSpec 70/30 USR (Bruker Biospin MRI GmbH, Ettlingen, Germany) and a 15 min MR anatomical scan using T2-weighted 3-dimensional turbo spin-echo sequence was acquired. An Inveon Acquisition Workplace was used to reconstruct the acquired images using ordered subset expectation maximization 3D (OSEM 3D) and framing the dynamics. The reconstructed image analysis was performed by using an Inveon Research Workplace. After co-registering acquired MR images with PET images, regions of interest (ROIs) were drawn on liver, heart, muscle, and kidney and time activity curves (TACs) were quantified.
# [4] = target: T1, asialoglycoprotein receptor (ASGR) (Mus musculus, UniProt P24721+P34927); assay: Competitive binding against [^125I]I-asialoorosomucoid on freshly isolated mouse hepatocytes; details: [^125I]I-asialoorosomucoid 5 nM, 1 hour on ice
# T1 construct: endogenous in cells; host or cells: primary hepatocytes freshly isolated from C57BL/6 mice (collagenase perfusion)
# T1 sequence (P34927 1-284): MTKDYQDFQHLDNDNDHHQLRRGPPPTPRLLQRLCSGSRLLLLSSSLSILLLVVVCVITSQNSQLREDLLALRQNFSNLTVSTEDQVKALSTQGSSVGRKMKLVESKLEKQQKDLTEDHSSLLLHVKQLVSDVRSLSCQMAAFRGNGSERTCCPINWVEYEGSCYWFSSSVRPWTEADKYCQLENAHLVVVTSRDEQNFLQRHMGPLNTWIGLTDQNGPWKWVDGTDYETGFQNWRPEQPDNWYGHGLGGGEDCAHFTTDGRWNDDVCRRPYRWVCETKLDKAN
# T1 sequence (P24721 1-301): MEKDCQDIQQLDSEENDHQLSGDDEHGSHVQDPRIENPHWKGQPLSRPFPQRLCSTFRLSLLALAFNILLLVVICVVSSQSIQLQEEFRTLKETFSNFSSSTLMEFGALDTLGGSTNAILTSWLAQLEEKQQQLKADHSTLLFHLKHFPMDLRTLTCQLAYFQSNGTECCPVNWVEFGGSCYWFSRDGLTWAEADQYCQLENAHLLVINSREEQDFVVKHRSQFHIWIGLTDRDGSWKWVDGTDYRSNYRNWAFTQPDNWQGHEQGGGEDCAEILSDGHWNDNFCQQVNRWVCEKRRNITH
# Protocol: Inhibitory constant (IC50) values were determined in triplicates using freshly isolated mouse hepatocytes (Seglen [1976]). […] In brief, cells were incubated in presence of [^125I]I-asialoorosomucoid (5 nM) with various ligand concentrations ranging from 10^− 5-10^− 11 M for 1 hour on ice. Cells were washed and cell bound activity was released by addition of 200 µL 1 M NaOH for 10 min. The activity content in the lysates was quantified in a γ-counter (2480 Wizard^2 3”, PerkinElmer, Waltham, Massachussetts, USA) and the values were plotted in excel. Fitting of the sigmoidal binding curve and the calculation of the IC50 value was done with excel’s solver plugin.
# Binding to the ASGR was quantified in an assay with freshly isolated mouse hepatocytes using the ^natGa-complex of NODAGA-TriGalactan. Hepatocytes were seeded in a 24-well plate and competitive binding against [^125I]I-asialorosomucoid (ASOR) was studied. For comparison, the affinity of GSA for the receptor was also determined.
# Isolation of murine hepatocytes followed the collagenase perfusion method published by Seglen [4]. Therefore, C57BL/6 mice were euthanized by cervical dislocation and subsequently the peritoneum was opened. […] Hepatocytes were resuspended in 20 – 30 mL of William’s E + Glutamaxx + 10 % FCS + 1 % Penicillin/Streptomycin (Gibco, Thermofisher Scientific) and counted, typically yielding 30 – 40 × 10^6 cells/animal. […]
# [5] = 30 min p.i., blocking with 27.7 µmol D-galactose
smiles,measurement,setting,value
"CC(=O)N[C@H]1C(O)O[C@H](CO)[C@H](O)[C@@H]1O (mixture of isomers) [GalNAc, N-acetylgalactosamine]",affinity for the ASGR relative to galactose,ASGR,10 times
CC1(CCCCCC(=O)NCCCC(=O)NC(COCc2cn(CCOCCOCCO[C@@H]3O[C@H](CO)[C@H](O)[C@H](O)[C@H]3O)nn2)(COCc2cn(CCOCCOCCO[C@@H]3O[C@H](CO)[C@H](O)[C@H](O)[C@H]3O)nn2)COCc2cn(CCOCCOCCO[C@@H]3O[C@H](CO)[C@H](O)[C@H](O)[C@H]3O)nn2)C(/C=C/C=C/C=C2/N(CCCS(=O)(=O)O)c3ccc(S(=O)(=O)O)cc3C2(C)C)=[N+](CCCS(=O)(=O)[O-])c2ccc(S(=O)(=O)O)cc21 (stereo partly shown) [BP-Fluor-647-TriGalactan],Fluorescence imaging of mouse hepatic organoids,"mouse hepatic organoids; 333 nM, co-staining with anti-ASGR antibody",internalization of the trimer into the organoids
O=C([O-])CN1CCN(CC(=O)[O-])CCN([C@H](CCC(=O)NCCCC(=O)NC(COCc2cn(CCOCCOCCO[C@@H]3O[C@H](CO)[C@H](O)[C@H](O)[C@H]3O)nn2)(COCc2cn(CCOCCOCCO[C@@H]3O[C@H](CO)[C@H](O)[C@H](O)[C@H]3O)nn2)COCc2cn(CCOCCOCCO[C@@H]3O[C@H](CO)[C@H](O)[C@H](O)[C@H]3O)nn2)C(=O)[O-])CC1.[68Ga+3] [[^68Ga]Ga-NODAGA-TriGalactan],Serum stability,[1]; 2 min,99.8 ± 0%
same,Serum stability,[1]; 30 min,97.6 ± 2.3%
same,Serum stability,[1]; 60 min,98.5 ± 1.2%
same,Serum stability,[1]; 120 min,92.9 ± 4.6%
same,stability in human blood serum (intact tracer),[1]; over the time course of 2 h,> 93%
same,PBS stability,Stability in PBS; 2 min,99.8%
same,PBS stability,Stability in PBS; 30 min,99.8%
same,PBS stability,Stability in PBS; 60 min,99.8%
same,PBS stability,Stability in PBS; 120 min,99.8%
same,stability in PBS (intact tracer),Stability in PBS; over the time course of 2 h,> 99%
same,Protein binding,plasma protein; 2 min of incubation,7.6 ± 3.9%
same,Protein binding,plasma protein; 30 min of incubation,5.5 ± 0.5%
same,Protein binding,plasma protein; 60 min of incubation,9.2 ± 0.2%
same,Protein binding,plasma protein; 120 min of incubation,13.6 ± 3.2%
same,Cellular uptake on mouse hepatic organoids,mouse hepatic organoids; 0.3 nM tracer,decent degree of internalization
same,Cellular uptake with blocking on mouse hepatic organoids,"mouse hepatic organoids; in presence of 10 mM GalNAc, p < 0.05",receptor specific interaction with the ASGR
same,Biodistribution Blood,[2]; 10 min p.i.,3.3 ± 0.2 % ID/g
same,Biodistribution Femur,[2]; 10 min p.i.,0.87 ± 0.52 % ID/g
same,Biodistribution Intestine,[2]; 10 min p.i.,1.13 ± 0.07 % ID/g
same,Biodistribution Kidneys,[2]; 10 min p.i.,8.2 ± 0.5 % ID/g and 8.15 ± 0.54 % ID/g
same,Biodistribution Liver,[2]; 10 min p.i.,33.4 ± 0.9 % ID/g
same,Biodistribution Lung,[2]; 10 min p.i.,2.14 ± 0.13 % ID/g
same,Biodistribution Muscle,[2]; 10 min p.i.,0.77 ± 0.02 % ID/g
same,Biodistribution Pancreas,[2]; 10 min p.i.,0.87 ± 0.12 % ID/g
same,Biodistribution Spleen,[2]; 10 min p.i.,0.78 ± 0.05 % ID/g
same,Biodistribution Blood,[2]; 30 min p.i.,0.89 ± 0.09 % ID/g
same,Biodistribution Femur,[2]; 30 min p.i.,0.22 ± 0.02 % ID/g
same,Biodistribution Heart,[2]; 30 min p.i.,0.40 ± 0.03 % ID/g
same,Biodistribution Intestine,[2]; 30 min p.i.,1.95 ± 0.17 % ID/g
same,Biodistribution Kidneys,[2]; 30 min p.i.,2.83 ± 0.18 % ID/g
same,Biodistribution Liver,[2]; 30 min p.i.,32.2 ± 3.7 % ID/g
same,Biodistribution Lung,[2]; 30 min p.i.,0.74 ± 0.03 % ID/g
same,Biodistribution Muscle,[2]; 30 min p.i.,0.23 ± 0.03 % ID/g
same,Biodistribution Pancreas,[2]; 30 min p.i.,0.31 ± 0.05 % ID/g
same,Biodistribution Spleen,[2]; 30 min p.i.,0.27 ± 0.02 % ID/g
same,Biodistribution Stomach,[2]; 30 min p.i.,1.05 ± 0.08 % ID/g
same,Biodistribution Blood,[2]; [5],1.19 ± 0.33 % ID/g
same,Biodistribution Femur,[2]; [5],0.37 ± 0.16 % ID/g
same,Biodistribution Heart,[2]; [5],0.44 ± 0.03 % ID/g
same,Biodistribution Intestine,[2]; [5],0.77 ± 0.19 % ID/g
same,Biodistribution Kidneys,[2]; [5],4.19 ± 0.29 % ID/g
same,Biodistribution Liver,[2]; [5],14.6 ± 0.15 % ID/g
same,Biodistribution Lung,[2]; [5],0.97 ± 0.04 % ID/g
same,Biodistribution Muscle,[2]; [5],0.43 ± 0.20 % ID/g
same,Biodistribution Pancreas,[2]; [5],0.45 ± 0.01 % ID/g
same,Biodistribution Spleen,[2]; [5],0.32 ± 0.03 % ID/g
same,Biodistribution Stomach,[2]; [5],0.68 ± 0.11 % ID/g
same,Biodistribution Blood,[2]; 60 min p.i.,0.3 ± 0.04 % ID/g and 0.34 ± 0.04 % ID/g
same,Biodistribution Femur,[2]; 60 min p.i.,0.26 ± 0.19 % ID/g
same,Biodistribution Heart,[2]; 60 min p.i.,0.17 ± 0.00 % ID/g
same,Biodistribution Intestine,[2]; 60 min p.i.,3.0 ± 0.4 % ID/g and 2.99 ± 0.43 % ID/g
same,Biodistribution Kidneys,[2]; 60 min p.i.,1.51 ± 0.10 % ID/g
same,Biodistribution Liver,[2]; 60 min p.i.,27.7 ± 3.1 % ID/g
same,Biodistribution Lung,[2]; 60 min p.i.,0.38 ± 0.10 % ID/g
same,Biodistribution Muscle,[2]; 60 min p.i.,0.17 ± 0.02 % ID/g
same,Biodistribution Pancreas,[2]; 60 min p.i.,0.19 ± 0.09 % ID/g
same,Biodistribution Spleen,[2]; 60 min p.i.,0.16 ± 0.02 % ID/g
same,Biodistribution Stomach,[2]; 60 min p.i.,0.92 ± 0.04 % ID/g
same,"Time of kidney activity peak, PET TAC",[3],~1.5 min
same,"Background muscle uptake, PET TAC",[3]; 1 h dynamic PET,less than 3 % ID/mL
same,"Activity in the blood (measured in the heart), PET TAC",[3]; within the first three minutes,below 5 % ID/mL
O=C([O-])CN1CCN(CC(=O)[O-])CCN([C@H](CCC(=O)NCCCC(=O)NC(COCc2cn(CCOCCOCCO[C@@H]3O[C@H](CO)[C@H](O)[C@H](O)[C@H]3O)nn2)(COCc2cn(CCOCCOCCO[C@@H]3O[C@H](CO)[C@H](O)[C@H](O)[C@H]3O)nn2)COCc2cn(CCOCCOCCO[C@@H]3O[C@H](CO)[C@H](O)[C@H](O)[C@H]3O)nn2)C(=O)[O-])CC1.[Ga+3] [[^natGa]Ga-NODAGA-TriGalactan],IC50,[4],73.2 ± 67.5 nM
